Measurements reported in patent publication US7462615B2, “Inhibitors of cysteine proteases, the pharmaceutical compositions thereof and their therapeutic applications” (Hybrigenics SA, priority 2005, dated 2008).
Where two headings read alike, the source gives them in different places.

Test system: HCT116 colon cancer cells
Test: HCT116 Cell Viability and Proliferation Assay
Format: cell-based
Details: MTS, mean of three independent experiments, read-out: HCT116 GI50 D3
Method: HCT116 colon cancer cells were obtained from ATCC (American Type Culture Collection), and maintained in Mc Coy's 5A medium containing 10% FBS, 3 mM glutamine and 1% penicillin/streptomycin. Cells were incubated at 37° C. in a humidified atmosphere containing 5% CO2.
Cell viability was assayed using the MTS technique in 96-well culture plates (CellTiter 96® Aqueous Non-Radioactive Cell Proliferation Assay, Promega) according to the manufacturer's instructions. MTS (3-(4,5-dimethylthiazol-2-yl)-5(3-carboxymethoxyphenyl)-2-(4-sulfophenyl)-2H-tetra-zolium) is a MTT-derived tetrazolium that is reduced in metabolically active cells into a soluble, cell-permeant formazan. The amount of formazan, detected by its absorbance at 492 nm is proportional to the number of living, metabolically active cells.
10^3 HCT116 cells were seeded per well. 24 hours later, the medium was changed and the cells treated in triplicate with the following concentrations of each compound: 10 μM-3.33 μM-1.11 μM-370 nM-123 nM-41 nM-14 nM and 5 nM. The compounds were diluted in 100% DMSO, whose final concentration on cells was kept at 0.5%.
Cells were incubated with the compounds for 72 hours, and their viability then assayed by the addition of MTS for 2 hours. Absorbance at 492 nm was measured directly from the 96-well culture plates. GI50 (Growth Inhibition 50) concentrations for each compound were calculated using a sigmoidal variable slope fit (Prism 4.0, Graphpad Softwares). Values represent mean of three independent experiments.

[1] = Homo sapiens, HCT-116, 72 hours

GI50 (72 hours) [µM]	GI50 [1] [µM]	Compound
0.361		6-(7)-Chloro-1-methyl-2,3,4,10,10a-pentaaza-cyclopenta[b]fluoren-9-one [Example 3/A]
	> 10	Cn1nc2nc3c(nc2n1)-c1ccccc1C3=O [Example 4a, 2-Methyl-2H-1,2,3,4,10-pentaaza-cyclopenta[b]fluoren-9-one]
	> 10	O=C1c2ccccc2-c2nc3nn(Cc4ccccc4)nc3nc21 [Example 4b, 2-Benzyl-2H-1,2,3,4,10-pentaaza-cyclopenta[b]fluoren-9-one]
